Activity calls are given as the source filed them. The calls are words filed in the database; no cut-off is given here.
How the values were obtained:
[1] = molecular target: Ras-related C3 botulinum toxin substrate 1 (Mus musculus) (UniProt P63001); assay: Inhibition of Rac1 activation in mouse NIH/3T3 cells lysates pre-incubated for 1 hr before addition of Rac activator stimulation by immunoblot analysis based pull-down assay; format: subcellular; details: Lysate
[2] = molecular target: Ras-related C3 botulinum toxin substrate 1 (Mus musculus) (UniProt P63001); assay: Inhibition of Rac1 in mouse NIH/3T3 cells assessed as reduction in Rac activator-stimulated membrane ruffling; format: cell-based
[3] = molecular target: Ras-related C3 botulinum toxin substrate 1 (Mus musculus) (UniProt P63001); assay: Inhibition of Rac1 in mouse NIH/3T3 cells assessed as reduction in Rac activator-stimulated cell adhesion measured every 5 mins for 6 hrs by xCELLigence assay; format: cell-based
[4] = molecular target: Ras-related C3 botulinum toxin substrate 1 (Mus musculus) (UniProt P63001); assay: Inhibition of Rac1 in mouse NIH/3T3 cells assessed as reduction in Rac activator-stimulated cell migration incubated for 24 hrs; format: cell-based
[5] = molecular target: Ras-related C3 botulinum toxin substrate 1 (Mus musculus, UniProt P63001); assay: Inhibition of Rac1 activation in mouse NIH/3T3 cells lysates pre-incubated for 1 hr before addition of Rac activator stimulation by immunoblot analysis based pull-down assay relative to control; format: subcellular, Lysate
[6] = molecular target: Ras-related C3 botulinum toxin substrate 1 (Mus musculus) (UniProt P63001); assay: Inhibition of mouse Rac1 assessed as decrease in B-max for GTP-binding on Rac1 by mant-GTP binding kinetics real-time assay
[7] = molecular target: Ras-related C3 botulinum toxin substrate 1 (Mus musculus) (UniProt P63001); assay: Binding affinity to mouse Rac1 by SPR assay
[8] = molecular target: Transforming protein RhoA (Mus musculus) (UniProt Q9QUI0); assay: Binding affinity to mouse RhoA by SPR assay
Transforming protein RhoA (Mus musculus), sequence (Q9QUI0 whole entry): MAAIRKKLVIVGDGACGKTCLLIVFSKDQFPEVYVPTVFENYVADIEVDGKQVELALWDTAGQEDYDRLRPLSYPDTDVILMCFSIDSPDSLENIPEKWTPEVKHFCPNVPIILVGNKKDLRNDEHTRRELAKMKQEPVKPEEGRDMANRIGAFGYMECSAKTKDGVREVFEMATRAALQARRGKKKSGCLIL

[9] = molecular target: Cell division control protein 42 homolog (Mus musculus) (UniProt P60766); assay: Binding affinity to mouse Cdc42 by SPR assay
Cell division control protein 42 homolog (Mus musculus), sequence (P60766 whole entry, looked up): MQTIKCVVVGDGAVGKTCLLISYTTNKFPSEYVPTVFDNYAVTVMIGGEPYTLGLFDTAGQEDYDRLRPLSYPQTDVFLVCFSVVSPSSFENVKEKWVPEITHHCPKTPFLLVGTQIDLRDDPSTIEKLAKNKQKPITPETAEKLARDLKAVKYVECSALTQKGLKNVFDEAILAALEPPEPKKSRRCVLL

[10] = molecular target: Ras-related C3 botulinum toxin substrate 1 (Mus musculus) (UniProt P63001); assay: Binding affinity to mouse Rac1 in presence of EDTA by SPR assay
[11] = molecular target: Ras-related C3 botulinum toxin substrate 2 (Mus musculus) (UniProt Q05144); assay: Inhibition of mouse Rac2 assessed as decrease in B-max for GTP-binding on Rac1 by mant-GTP binding kinetics real-time assay
[12] = molecular target: Transforming protein RhoA (Mus musculus) (UniProt Q9QUI0); assay: Inhibition of mouse RhoA assessed as decrease in B-max for GTP-binding on Rac1 by mant-GTP binding kinetics real-time assay
[13] = molecular target: Rho-related GTP-binding protein RhoG (Mus musculus) (UniProt P84096); assay: Inhibition of mouse RhoG assessed as decrease in B-max for GTP-binding on Rac1 by mant-GTP binding kinetics real-time assay
Rho-related GTP-binding protein RhoG (Mus musculus), sequence (P84096 whole entry): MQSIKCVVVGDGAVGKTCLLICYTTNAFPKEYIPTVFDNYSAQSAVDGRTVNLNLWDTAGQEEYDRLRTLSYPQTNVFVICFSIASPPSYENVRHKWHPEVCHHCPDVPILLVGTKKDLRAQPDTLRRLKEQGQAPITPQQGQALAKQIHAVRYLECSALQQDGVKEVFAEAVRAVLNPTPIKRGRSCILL

[14] = molecular target: Ras-related protein Rab-35 (Mus musculus) (UniProt Q6PHN9); assay: Inhibition of mouse Rab35 assessed as decrease in B-max for GTP-binding on Rac1 by mant-GTP binding kinetics real-time assay
Ras-related protein Rab-35 (Mus musculus), sequence (Q6PHN9 whole entry): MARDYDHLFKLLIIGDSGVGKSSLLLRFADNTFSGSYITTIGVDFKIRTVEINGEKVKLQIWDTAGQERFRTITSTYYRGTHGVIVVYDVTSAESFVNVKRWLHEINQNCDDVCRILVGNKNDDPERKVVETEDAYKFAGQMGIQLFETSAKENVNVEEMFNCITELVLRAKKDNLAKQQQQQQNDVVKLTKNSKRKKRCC

[15] = molecular target: ADP-ribosylation factor 6 (Mus musculus) (UniProt P62331); assay: Inhibition of mouse Arf6 assessed as decrease in B-max for GTP-binding on Rac1 by mant-GTP binding kinetics real-time assay
ADP-ribosylation factor 6 (Mus musculus), sequence (P62331 whole entry): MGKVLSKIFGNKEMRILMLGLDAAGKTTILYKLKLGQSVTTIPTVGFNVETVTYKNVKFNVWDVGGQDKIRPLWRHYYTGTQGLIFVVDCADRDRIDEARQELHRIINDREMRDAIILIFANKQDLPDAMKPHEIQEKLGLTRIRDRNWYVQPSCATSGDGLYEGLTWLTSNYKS

[16] = molecular target: Ras-related C3 botulinum toxin substrate 1 (Mus musculus) (UniProt P63001); assay: Inhibition of Rac1 in mouse airways smooth muscle cells assessed as reduction in methacholine-induced maximal contraction pre-incubated for 1 hrs before methacholine addition
[17] = system: Mus musculus; assay: Suppression of airway hyperresponsiveness in mouse model of percutaneous sensitization and house dust mite extract intranasal challenge-induced human allergic asthma dosed via nebulization 10 mins before methacholine challenge; format: functional, organism-based

How did the inhibition [1] turn out when `CCN(CC)CCCC(C)Nc1nc(C)cc(Nc2ccc3nc(C)cc(N)c3c2)n1` (centres undefined) was run?
The inhibition was “Active”.

And the inhibition [2]?
Its inhibition is “Dose-dependent effect”.

What about the inhibition [3] of the same compound?
The inhibition was “Active”.

What about the inhibition [4] of the same compound?
Its inhibition is “Active”.

How did the IC50 [5] turn out when `COc1ccccc1NS(=O)(=O)c1ccc(NC(=O)CCSc2ccc(C)cc2)cc1` was run?
Its IC50 is 1 nM.

With `COc1ccccc1NS(=O)(=O)c1ccc(N)cc1` as the compound, how does the IC50 [5] read?
Its IC50 is 1 nM.

Which IC50 [5] does the source give for `COc1ccccc1NS(=O)(=O)c1ccc(NC(=O)CSc2ccc(C)cc2)cc1` here?
The IC50 was 1 nM.

For `COc1cccc(NS(=O)(=O)c2ccc(N)cc2)c1`, which IC50 [5] is on record?
Its IC50 is 1 nM.

With `COc1ccccc1NS(=O)(=O)c1ccc([N+](=O)[O-])cc1` as the compound, how does the IC50 [5] read?
The IC50 was 1 nM.

For `COc1ccc(OC)c(NS(=O)(=O)c2ccc(NC(=O)CCOc3ccc(C)cc3)cc2)c1`, which IC50 [5] is on record?
The IC50 was 1 nM.

Which IC50 [5] does the source give for `C=CC(=O)Nc1ccc(S(=O)(=O)Nc2cc(OC)ccc2OC)cc1` here?
Its IC50 is 0.1 nM.

Which IC50 [5] does the source give for `COc1ccc(NS(=O)(=O)c2ccc(NC(=O)CCSc3ccc(C)cc3)cc2)c(OC)c1` here?
Its IC50 is 30 nM.

For `COc1ccc(OC)c(NS(=O)(=O)c2ccc(NC(=O)CCSc3ccc(C)cc3)cc2)c1`, which inhibition [6] is on record?
Its inhibition is “Active”.

What about the inhibition [1] of the same compound?
The inhibition was “Active”.

What about the Activity [7] of the same compound?
Its Activity is “Active”.

And the Activity [8]?
The Activity was “inactive”.

What about the Activity [9] of the same compound?
Its Activity is “inactive”.

And the Activity [10]?
The Activity was “Active”.

What about the inhibition [11] of the same compound?
The inhibition was “Active”.

And the inhibition [12]?
The inhibition was “inactive”.

And the inhibition [13]?
The inhibition was “inactive”.

And the inhibition [14]?
The inhibition was “inactive”.

What about the inhibition [15] of the same compound?
The inhibition was “inactive”.

What about the inhibition [2] of the same compound?
The inhibition was “Dose-dependent effect”.

What about the inhibition [3] of the same compound?
Its inhibition is “Active”.

What about the inhibition [4] of the same compound?
Its inhibition is “Active”.

What about the inhibition [16] of the same compound?
The inhibition was “Active”.

And the Activity [17]?
The Activity was “Active”.

What about the IC50 [5] of the same compound?
Its IC50 is 1 nM.

— ChEMBL document CHEMBL4482302, “Inhibitors of rac1 and uses thereof for inducing bronchodilatation” (2018)
